Data taken from PubChem BioAssay AID248 (DTP/NCI, 2004).
Where “and” joins values, the source holds several entries; their conditions need not be identical. Identical values can stand only once. Inconclusive results and toxic doses are left out. Cut-off read from the data, not from the text of the source: active = T/C of 150% or more; inactive = T/C below 125%.

Tested on: L1210 leukemia ip in BDF1 mice, survival T/C
Assay: NCI In Vivo Anticancer Drug Screen. Data for tumor model L1210 Leukemia (intraperitoneal) in B6D2F1 (BDF1) mice
Conditions: higher = longer survival
How it was run: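 Tumor cells were implanted, animals were treated, and survival was followed. The result divides the treated measurement by the vehicle-control measurement.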

[1] = endpoint: mean survival time, dose: 100.0 mg/kg/injection, schedule: Q01DX009 (ip), vehicle: Klucel (hydroxypropylcellulose) (HPC)
[2] = endpoint: mean survival time, dose: 100.0 mg/kg/injection, schedule: Q04DX003 (ip), vehicle: Klucel (hydroxypropylcellulose) (HPC)

Measured: T/C

Cc1c(N)nc([C@H](CC(N)=O)NC[C@H](N)C(N)=O)nc1C(=O)N[C@H](C(=O)N[C@H](C)[C@@H](O)[C@H](C)C(=O)N[C@H](C(=O)NCCc1nc(-c2nc(C(=O)NCCC[S+](C)C)cs2)cs1)[C@@H](C)O)C(OC1OC(CO)C(O)C(O)C1OC1OC(CO)C(O)C(OC(N)=O)C1O)c1cnc[nH]1 (some centres undefined)
inactive: endpoint: mean survival time, dose: 0.35 mg/kg/injection, schedule: Q01DX009 (ip), vehicle: saline 99 % of control and 100 % of control | endpoint: mean survival time, dose: 0.7 mg/kg/injection, schedule: Q01DX009 (ip), vehicle: saline 100 % of control | endpoint: mean survival time, dose: 1.3 mg/kg/injection, schedule: Q01DX009 (ip), vehicle: saline 99 % of control and 107 % of control | endpoint: mean survival time, dose: 2.0 mg/kg/injection, schedule: Q01DX009 (ip), vehicle: saline 101 % of control | endpoint: mean survival time, dose: 2.0 mg/kg/injection, schedule: Q04DX002 (ip), vehicle: saline 97 % of control | endpoint: mean survival time, dose: 2.5 mg/kg/injection, schedule: Q01DX009 (ip), vehicle: saline 110 % of control and 119 % of control | endpoint: mean survival time, dose: 4.0 mg/kg/injection, schedule: Q01DX009 (ip), vehicle: saline 107 % of control and 109 % of control and 112 % of control | endpoint: mean survival time, dose: 4.0 mg/kg/injection, schedule: Q04DX002 (ip), vehicle: saline 103 % of control and 105 % of control | endpoint: mean survival time, dose: 5.0 mg/kg/injection, schedule: Q01DX009 (ip), vehicle: saline 94 % of control and 107 % of control | endpoint: mean survival time, dose: 5.8 mg/kg/injection, schedule: Q01DX009 (ip), vehicle: clinical formulation 93 % of control | endpoint: mean survival time, dose: 7.81 mg/kg/injection, schedule: Q01DX009 (ip), vehicle: saline 109 % of control | endpoint: mean survival time, dose: 8.0 mg/kg/injection, schedule: Q01DX009 (ip), vehicle: saline 104 % of control and 109 % of control and 110 % of control | endpoint: mean survival time, dose: 8.0 mg/kg/injection, schedule: Q04DX002 (ip), vehicle: saline 100 % of control and 108 % of control | endpoint: mean survival time, dose: 8.7 mg/kg/injection, schedule: Q01DX009 (ip), vehicle: clinical formulation 95 % of control | endpoint: mean survival time, dose: 10.0 mg/kg/injection, schedule: Q01DX009 (ip), vehicle: saline 106 % of control and 110 % of control | endpoint: mean survival time, dose: 13.0 mg/kg/injection, schedule: Q01DX009 (ip), vehicle: clinical formulation 92 % of control | endpoint: mean survival time, dose: 15.62 mg/kg/injection, schedule: Q01DX009 (ip), vehicle: saline 104 % of control | endpoint: mean survival time, dose: 16.0 mg/kg/injection, schedule: Q01DX009 (ip), vehicle: saline 93 % of control and 108 % of control and 114 % of control | endpoint: mean survival time, dose: 16.0 mg/kg/injection, schedule: Q04DX002 (ip), vehicle: saline 97 % of control and 103 % of control | endpoint: mean survival time, dose: 20.0 mg/kg/injection, schedule: Q01DX009 (ip), vehicle: clinical formulation 93 % of control | endpoint: mean survival time, dose: 30.0 mg/kg/injection, schedule: Q01DX009 (ip), vehicle: clinical formulation 87 % of control | endpoint: mean survival time, dose: 31.0 mg/kg/injection, schedule: Q04DX002 (ip), vehicle: saline 103 % of control and 106 % of control | endpoint: mean survival time, dose: 31.25 mg/kg/injection, schedule: Q01DX001 (ip), vehicle: saline 100 % of control | endpoint: mean survival time, dose: 31.25 mg/kg/injection, schedule: Q01DX009 (ip), vehicle: saline 116 % of control | endpoint: mean survival time, dose: 32.0 mg/kg/injection, schedule: Q01DX009 (ip), vehicle: saline 113 % of control and 91 % of control and 92 % of control | endpoint: mean survival time, dose: 62.0 mg/kg/injection, schedule: Q04DX002 (ip), vehicle: saline 93 % of control and 101 % of control | endpoint: mean survival time, dose: 62.5 mg/kg/injection, schedule: Q01DX001 (ip), vehicle: saline 122 % of control | endpoint: mean survival time, dose: 62.5 mg/kg/injection, schedule: Q01DX009 (ip), vehicle: saline 107 % of control | endpoint: mean survival time, dose: 125.0 mg/kg/injection, schedule: Q01DX001 (ip), vehicle: saline 106 % of control | endpoint: mean survival time, dose: 125.0 mg/kg/injection, schedule: Q01DX009 (ip), vehicle: saline 97 % of control | endpoint: mean survival time, dose: 250.0 mg/kg/injection, schedule: Q01DX001 (ip), vehicle: saline 106 % of control | endpoint: median survival time, dose: 3.0 mg/kg/injection, schedule: Q01DX009 (ip), vehicle: saline 99 % of control | endpoint: median survival time, dose: 4.0 mg/kg/injection, schedule: Q01DX009 (ip), vehicle: saline 100 % of control and 110 % of control | endpoint: median survival time, dose: 5.0 mg/kg/injection, schedule: Q01DX009 (ip), vehicle: saline 101 % of control | endpoint: median survival time, dose: 8.0 mg/kg/injection, schedule: Q01DX009 (ip), vehicle: saline 106 % of control and 120 % of control | endpoint: median survival time, dose: 8.4 mg/kg/injection, schedule: Q01DX009 (ip), vehicle: saline 98 % of control | endpoint: median survival time, dose: 14.0 mg/kg/injection, schedule: Q01DX009 (ip), vehicle: saline 96 % of control | endpoint: median survival time, dose: 16.0 mg/kg/injection, schedule: Q01DX009 (ip), vehicle: saline 106 % of control | endpoint: median survival time, dose: 23.0 mg/kg/injection, schedule: Q01DX009 (ip), vehicle: saline 96 % of control | endpoint: median survival time, dose: 32.0 mg/kg/injection, schedule: Q01DX009 (ip), vehicle: saline 100 % of control | endpoint: median survival time, dose: 39.0 mg/kg/injection, schedule: Q01DX009 (ip), vehicle: saline 88 % of control

ICc1nc2ccccc2[nH]1
inactive: endpoint: mean survival time, dose: 9.38 mg/kg/injection, schedule: Q01DX001 (ip), vehicle: steriod suspending solution 95 % of control | endpoint: mean survival time, dose: 18.75 mg/kg/injection, schedule: Q01DX001 (ip), vehicle: steriod suspending solution 105 % of control | endpoint: mean survival time, dose: 37.5 mg/kg/injection, schedule: Q01DX001 (ip), vehicle: steriod suspending solution 94 % of control

Nc1nc(N)c2c(n1)CCCC2
inactive: endpoint: mean survival time, dose: 12.5 mg/kg/injection, schedule: Q04DX003 (ip), vehicle: saline with Tween-80 95 % of control | endpoint: mean survival time, dose: 25.0 mg/kg/injection, schedule: Q04DX003 (ip), vehicle: saline with Tween-80 93 % of control | endpoint: mean survival time, dose: 50.0 mg/kg/injection, schedule: Q04DX003 (ip), vehicle: saline with Tween-80 91 % of control

COC(=O)C(CSCSC)NC(=O)Nc1ccccc1C (centres undefined)
inactive: endpoint: mean survival time, dose: 100.0 mg/kg/injection, schedule: Q01DX009 (ip), vehicle: saline with Tween-80 102 % of control | endpoint: mean survival time, dose: 200.0 mg/kg/injection, schedule: Q01DX009 (ip), vehicle: saline with Tween-80 90 % of control | endpoint: mean survival time, dose: 400.0 mg/kg/injection, schedule: Q01DX009 (ip), vehicle: saline with Tween-80 97 % of control

O=C1c2ccccc2-c2cccc3cccc1c23
inactive: endpoint: mean survival time, dose: 50.0 mg/kg/injection, schedule: Q01DX001 (ip), vehicle: saline sonified 94 % of control | endpoint: mean survival time, dose: 100.0 mg/kg/injection, schedule: Q01DX001 (ip), vehicle: saline sonified 95 % of control | endpoint: mean survival time, dose: 100.0 mg/kg/injection, schedule: Q01DX009 (ip), vehicle: gum acacia 105 % of control | endpoint: mean survival time, dose: 200.0 mg/kg/injection, schedule: Q01DX001 (ip), vehicle: saline sonified 97 % of control | endpoint: mean survival time, dose: 200.0 mg/kg/injection, schedule: Q01DX009 (ip), vehicle: gum acacia 96 % of control | endpoint: mean survival time, dose: 400.0 mg/kg/injection, schedule: Q01DX009 (ip), vehicle: gum acacia 102 % of control

NC1CCC2CCCCC2C1 (centres undefined)
inactive: endpoint: mean survival time, dose: 25.0 mg/kg/injection, schedule: Q01DX009 (ip), vehicle: Klucel (hydroxypropylcellulose) (HPC) 101 % of control | endpoint: mean survival time, dose: 25.0 mg/kg/injection, schedule: Q04DX003 (ip), vehicle: Klucel (hydroxypropylcellulose) (HPC) 95 % of control | endpoint: mean survival time, dose: 50.0 mg/kg/injection, schedule: Q01DX009 (ip), vehicle: Klucel (hydroxypropylcellulose) (HPC) 93 % of control | endpoint: mean survival time, dose: 50.0 mg/kg/injection, schedule: Q04DX003 (ip), vehicle: Klucel (hydroxypropylcellulose) (HPC) 100 % of control | [1] 98 % of control | [2] 94 % of control

Cc1cc(=O)oc2c1ccc1c(O)cccc12
inactive: endpoint: mean survival time, dose: 100.0 mg/kg/injection, schedule: Q01DX001 (ip), vehicle: carboxymethylcellulose (CMC) 103 % of control | endpoint: mean survival time, dose: 200.0 mg/kg/injection, schedule: Q01DX001 (ip), vehicle: carboxymethylcellulose (CMC) 97 % of control | endpoint: mean survival time, dose: 400.0 mg/kg/injection, schedule: Q01DX001 (ip), vehicle: carboxymethylcellulose (CMC) 94 % of control

CCOC(=O)CNc1ccc(C)c(F)c1
inactive: endpoint: mean survival time, dose: 25.0 mg/kg/injection, schedule: Q04DX002 (ip), vehicle: Klucel (hydroxypropylcellulose) (HPC) 98 % of control | endpoint: mean survival time, dose: 50.0 mg/kg/injection, schedule: Q04DX002 (ip), vehicle: Klucel (hydroxypropylcellulose) (HPC) 98 % of control | endpoint: mean survival time, dose: 100.0 mg/kg/injection, schedule: Q04DX002 (ip), vehicle: Klucel (hydroxypropylcellulose) (HPC) 97 % of control and 109 % of control

Nc1nc(-c2ccc(O)cc2)nc2[nH]ncc12
inactive: endpoint: mean survival time, dose: 100.0 mg/kg/injection, schedule: Q01DX001 (ip), vehicle: Klucel (hydroxypropylcellulose) (HPC) 91 % of control | endpoint: mean survival time, dose: 200.0 mg/kg/injection, schedule: Q01DX001 (ip), vehicle: Klucel (hydroxypropylcellulose) (HPC) 100 % of control | endpoint: mean survival time, dose: 400.0 mg/kg/injection, schedule: Q01DX001 (ip), vehicle: Klucel (hydroxypropylcellulose) (HPC) 94 % of control

O=C(O)C1c2ccccc2Cc2ccccc21
inactive: [1] 110 % of control | [2] 103 % of control | endpoint: mean survival time, dose: 200.0 mg/kg/injection, schedule: Q01DX009 (ip), vehicle: Klucel (hydroxypropylcellulose) (HPC) 101 % of control | endpoint: mean survival time, dose: 200.0 mg/kg/injection, schedule: Q04DX003 (ip), vehicle: Klucel (hydroxypropylcellulose) (HPC) 97 % of control | endpoint: mean survival time, dose: 400.0 mg/kg/injection, schedule: Q04DX003 (ip), vehicle: Klucel (hydroxypropylcellulose) (HPC) 106 % of control

C=C(C)C1(CCC)C(=O)NC(=S)NC1=O
inactive: endpoint: mean survival time, dose: 75.0 mg/kg/injection, schedule: Q01DX001 (ip), vehicle: saline 107 % of control | endpoint: mean survival time, dose: 150.0 mg/kg/injection, schedule: Q01DX001 (ip), vehicle: saline 111 % of control | endpoint: mean survival time, dose: 300.0 mg/kg/injection, schedule: Q01DX001 (ip), vehicle: saline 116 % of control
